Measurements reported in patent EP4692059A1, “CATIONIC LIPID HAVING DISULFIDE BOND” (Tohoku University, priority 2023, dated 2024).

Columns and labels:
[1] = Particle size, PdI and zeta potential of mRNA-encapsulating LNPs by dynamic light scattering (Experimental Example 6); assay type: physicochemical; settings: mRNA-encapsulating LNP; for zeta potential (mV): cationic lipid:DOPC:Chol=49:7.5:42.5:1, dispersion in TBS (Tables 8-1, 8-2); for PdI / particle size (nm): cationic lipid:DOPC:Chol=49:7.5:42.5:1, dispersion in TBS, dynamic light scattering (Tables 8-1, 8-2)
Protocol: An acidic buffer solution (total amount: 1300 µL) of nucleic acid was prepared by weighing 6.5 µg of mRNA solution (0.6 mg/mL) in a 5 mL tube and adding acidic citrate buffer (20 mM, pH 5.0).
An acidic buffer solution of nucleic acid and an ethanol solution of lipid were each weighed in a syringe. […] The obtained concentrate was diluted with TBS to a lipid concentration of 2 mM to give a dispersion containing LNP.
The particle size, PdI (Polydispersity Index), and zeta potential of the mRNA-encapsulating LNP prepared by the method of the above-mentioned 1 were measured by a dynamic light scattering method (Zetasizer Nano; Malvern). […]

[2] = Particle size, PdI and zeta potential of mRNA-encapsulating LNPs by dynamic light scattering (Experimental Example 2); assay type: physicochemical
Protocol: An acidic buffer solution (total amount: 1080 µL) of nucleic acid was prepared by weighing 7.2 µg of mRNA solution (0.6 mg/mL) in a 5 mL tube and adding acidic malate buffer (20 mM, pH 3.0).
An acidic buffer solution of nucleic acid and an ethanol solution of lipid were each weighed in a syringe.
The particle size, PdI (Polydispersity Index), and zeta potential of the mRNA-encapsulating LNP prepared by the method of the above-mentioned 1 were measured by a dynamic light scattering method (Zetasizer Nano; Malvern).

[3] = tested on: liver; test: In vivo gene expression, luciferase luminescence in the liver after tail vein administration (Experimental Example 4); settings: BALB/c mouse, mRNA 0.05 mg/kg; for amount of luminescence (photons/sec) in liver: tail vein, 4.5 hr after administration, LNP cationic lipid:DOPC:Chol:DMG-PEG2k = 52.5:7.5:40:1.5, prepared as in Experimental Example 2; for relative amount of luminescence: liver luminescence relative to cationic lipid of Comparative Example
Protocol: LNP encapsulating mRNA that expresses luciferase (cationic lipid:DOPC:Chol:DMG-PEG2k = 52.5:7.5:40:1.5 (molar ratio)) was prepared by the method described in [Experimental Example 2], 1.
The prepared each mRNA-encapsulating LNP dispersion was administered from the tail vein of BALB/c mouse (male, 5-week-old). The dose of mRNA was set to 0.05 mg per 1 kg body weight of the mouse, and the dose of the mRNA-encapsulating LNP dispersion was set to 10 µL per 1 g body weight of the mouse. After 4.5 hr from the administration of the mRNA-encapsulating LNP dispersion, a PBS solution of D-luciferin potassium was administered into the abdominal cavity of the mouse. The dose of D-luciferin potassium was set to 3 mg per mouse, and the dose of the PBS solution of D-luciferin potassium was set to 200 µL per mouse. After 15 min from the administration of the PBS solution of D-luciferin potassium, the mouse was euthanized, and the liver was isolated. The luminescence in the liver was quantified using an in vivo imaging system (IVIS) with an exposure of 10 sec. The amount of luminescence in the liver was quantified by image analysis using Live Imaging software attached to IVIS. The amount of luminescence (photons/sec) was calculated from the acquired image and used as an index of gene expression activity. The cationic lipids used, the luminescence intensity in the liver, and the relative luminescence intensity (= luminescence intensity in the liver when cationic lipid of Example was used/luminescence intensity in the liver when cationic lipid of Comparative Example was used) are shown in Table 7-1 to Table 7-3. "E+0a" (a: integer) indicated in Table 7-1 to Table 7-3 means "10^a". For example, "3.94E+09" means "3.94×10^9". […]

[4] = tested on: mouse red blood cells; test: Hemolysis activity (membrane fusion ability) at pH 7.4 and 5.5 (Experimental Example 8); assay type: cell-based, ICR mice
Protocol: LNP encapsulating mRNA that expresses luciferase (cationic lipid:DOPC:Chol:DMG-PEG2k = 52.5:7.5:40:1.5 (molar ratio)) was prepared by the method described in […], 1. As cationic lipid, the cationic lipid of Comparative Example, compound 94, compound 112, compound 162, compound 181, or compound 194 was used.
(§1) The collected blood was immediately mixed with 1.0 µL of heparin solution (5000 U/5 mL). About 9 mL of PBS was added to the blood to make the total volume 10 mL. The mixture was then mixed by inversion and centrifuged (4°C, 400 g, 10 min). The supernatant containing plasma components was removed using a Pasteur pipette. About 9 mL of PBS was added to the blood cell components to make the total volume 10 mL, and the mixture was centrifuged again. A similar washing procedure was repeated 4 times to obtain mouse red blood cells.
(§2) 2, 4, 6, 8, and 10 µL of mouse red blood cells were weighed and diluted with PBS containing 1 w/v% Triton-X100. The entire diluted solution was transferred to a clear 96-well plate, and the absorbance at 545 nm was measured using a plate reader. A calibration curve was created using these samples, and the point where the absorbance reached 1 was determined as the amount of blood cells to be used in the hemolysis assay. Empty LNP solution was weighed into an Eppendorf tube and diluted with malic acid-PBS buffer (pH 5.5, pH 7.4), followed by addition of mouse red blood cells. The final lipid concentration was 100 µM at pH 7.4 and 33.3 µM at pH 5.5, and the final volume of the solution was 250 µL. Each tube was shaken at 1900 rpm for 15 min. Each sample was centrifuged under centrifugation conditions (4°C, 400 g, 5 min), and 100 µL of the supernatant was transferred to a clear 96-well plate and the absorbance at 545 nm was measured. Untreated red blood cells were used as the negative control. 1 w/v% Triton-X was used as the positive control. The hemolysis activity of each sample was calculated using the following formula: Hemolysis activity (%) = 100×(absorbance of each sample - absorbance of negative control)/(absorbance of positive control - absorbance of negative control).

[5] = tested on: mouse red blood cells; test: Hemolysis activity (membrane fusion ability) at pH 7.4 and 5.5 (Experimental Example 5); assay type: cell-based, ICR mice
Protocol: LNPs encapsulating mRNA that expresses luciferase (cationic lipid:DOPC:Chol:DMG-PEG2k=52.5:7.5:40:1.5 (molar ratio)) were prepared using the method described in [Experimental Example 2] 1. As cationic lipid, the cationic lipid of Comparative Example, compound 9, compound 14, compound 27, compound 33, or compound 42 was used.
as §1
as §2, with “1 w/v% Triton-X was used as the positive control.” left out

[6] = tested on: HeLa cells; test: In vitro gene expression in HeLa cells (luciferase mRNA-encapsulating LNP, cumulative luminescence in 24 hr)
Protocol: LNP encapsulating mRNA that expresses luciferase (cationic lipid:DOPC:Chol:DMG-PEG2k = 50:10:40:1 (molar ratio)) was prepared by the method described in [Experimental Example 2], 1.
HeLa cells, which are human cervical cancer cells, were seeded in a 3.5 cm dish at 5.0×10^4 cells/2 mL/Dish 24 hours before transfection. After 24 hr, the medium was changed to a culture medium (D-MEM) containing 0.1 mM D-luciferin. The prepared mRNA-encapsulating LNP was diluted with PBS to an mRNA concentration of about 1 µg/mL. The diluted mRNA-encapsulating LNP solution (about 200 µL, mRNA: 0.2 µg) was added to a 3.5 cm dish, and set in an incubator luminometer KronosDio. The luminescence intensity of luciferase was measured for 2 min every one hour. The cumulative luciferase luminescence intensity in 24 hr was calculated from the obtained time change of expression. […] In Comparative Example, the cationic lipid described in Table 2 was used.

[7] = Measurement of Liposomal pKa (TNS fluorescence, LNP without nucleic acid); settings: cationic lipid:DOPC:Chol = 52.5:7.5:40 (molar ratio) + DMG-PEG2k about 1.5 mol, pH at which the relative fluorescence intensity was 50%
Protocol: Lipid nano particles (LNP) without containing nucleic acid were used for the evaluation of Liposomal pKa.
To the obtained mixture was further added DMG-PEG2k (2 mM ethanol solution) in an amount of about 1.5 mol with respect to the total amount 100 mol of cationic lipid, DOPC, and Chol, and then ethanol was added to prepare an ethanol solution of the lipid (total amount: 360 µL).
An acidic malic acid buffer (20 mM, pH 3.0) (1080 µL) containing NaCl at a final concentration of 30 mM and an ethanol solution (360 µL) of lipid were each weighed in a syringe. Using an ultra high-speed nanomedicament producing apparatus NanoAssmblr (manufactured by Precision NanoSystems), LNP was prepared under the conditions of addition rate of acidic buffer solution: 3 mL/min, addition rate of ethanol solution of lipid: 1 mL/min, and syringe holder temperature: 25°C, and collected in a 15 mL tube. […]
20 mM Citrate buffer, sodium phosphate buffer, and tris HCl buffer, each containing NaCl at a final concentration of 150 mM and adjusted to various pHs within the range of pH 3.0 to 10.0, were prepared. […] The relative fluorescence intensity was calculated as a percentage, with the maximum value of the fluorescence intensity in each LNP being 100% and the minimum value being 0%.

[8] = mRNA-encapsulating LNP containing the cationic lipid, dispersion in PBS (Table 5-3)
[9] = mRNA-encapsulating LNP containing the cationic lipid, dispersion in PBS, dynamic light scattering (Table 5-3)
[10] = pH of the endosomal environment (5.5), final lipid concentration 33.3 µM, Fig. 4, versus LNP of Comparative Example
[11] = physiological pH (7.4), final lipid concentration 100 µM, Fig. 3

| PdI ([2]; mRNA-encapsulating LNP, cationic lipid:DOPC:Chol = 50:10:40 (molar ratio) + DMG-PEG2k about 1 mol, Polydispersity Index, dynamic light scattering) | zeta potential (mV) ([2]; mRNA-encapsulating LNP, cationic lipid:DOPC:Chol = 50:10:40 (molar ratio) + DMG-PEG2k about 1 mol, Zetasizer Nano) | particle size (nm) ([2]; mRNA-encapsulating LNP, cationic lipid:DOPC:Chol = 50:10:40 (molar ratio) + DMG-PEG2k about 1 mol, dynamic light scattering) | Liposomal pKa [7] | SMILES | zeta potential (mV) [1] [mV] | PdI [1] | particle size (nm) [1] [nm] | zeta potential (mV) [2, 8] [mV] | PdI [2, 9] | particle size (nm) [2, 9] [nm] | amount of luminescence (photons/sec) in liver [3] [photons/sec] | relative amount of luminescence [3] | hemolysis activity [4, 10] | hemolysis activity [4, 11] | hemolysis activity ([5]; pH of the endosomal environment (5.5), final lipid concentration 33.3 µM, Fig. 2, versus LNP of Comparative Example) | hemolysis activity ([5]; physiological pH (7.4), final lipid concentration 100 µM, Fig. 1) | cumulative luciferase luminescence intensity (RLU) in 24 hr ([6]; LNP cationic lipid:DOPC:Chol:DMG-PEG2k = 50:10:40:1, mRNA 0.2 µg per dish, E+0a means 10^a) [RLU] | relative luminescence intensity ([6]; cumulative intensity in 24 hr relative to cationic lipid of Comparative Example) |
| --- | --- | --- | --- | --- | --- | --- | --- | --- | --- | --- | --- | --- | --- | --- | --- | --- | --- | --- |
|  |  |  |  | CCCCCCCC(=O)OC(CC=CCCCCCCCC(=O)Oc1ccc(CC(=O)OCCC2CCN(CCSSCCN3CCC(CCOC(=O)Cc4ccc(OC(=O)CCCCCCCC=CCC(CCCCCC)OC(=O)CCCCC)cc4)CC3)CC2)cc1)CCCCCC (stereo not drawn) [compound 162] | -3.44 | 0.079 | 126 | -5.04 | 0.041 | 91.2 | 4.43E+09 | 2.85 | superior hemolysis activity compared to the LNP containing the cationic lipid of Comparative Example | none |  |  |  |  |
| 0.073 | -2.80 | 92.18 |  | CCCCCCCC/C=C\CCCCCCCC(=O)Oc1ccc(CC(=O)OCCC2CCN(CCSSCCN3CCC(CCOC(=O)Cc4ccc(OC(=O)CCCC(=O)OC[C@H](COC(=O)CCCCCC)OC(=O)CCCCCC)cc4)CC3)CC2)cc1 [compound 14] |  |  |  |  |  |  | 6.12E+09 | 4.03 |  |  | superior hemolysis activity compared to LNP containing the cationic lipid of Comparative Example | did not exhibit hemolysis activity | 1.56E+08 | 8.44 |
|  |  |  | 6.25 | CCCCCCCC/C=C\CCCCCCCC(=O)O[C@H](C/C=C\CCCCCCCC(=O)Oc1ccc(CC(=O)OCCC2CCN(CCSSCCN3CCC(CCOC(=O)Cc4ccc(OC(=O)CCCCCCC/C=C\C[C@H](CCCCCC)OC(=O)CCCCCCC/C=C\CCCCCCCC)cc4)CC3)CC2)cc1)CCCCCC [compound 4] |  |  |  |  |  |  |  |  |  |  |  |  |  |  |
|  |  |  |  | CCCCCCCC/C=C\CCCCCCCC(=O)Oc1ccc(CC(=O)OCCC2CCN(CCSSCCN3CCC(CCOC(=O)Cc4ccc(OC(=O)CCCCCCCC(OC(=O)CC)C(CCCCCCCC)OC(=O)CC)cc4)CC3)CC2)cc1 (stereo not drawn) [compound 94] | -4.45 | 0.121 | 119.7 | -2.40 | 0.048 | 88.0 | 9.40E+09 | 6.18 | superior hemolysis activity compared to the LNP containing the cationic lipid of Comparative Example | none |  |  |  |  |
